Data on five compounds can be found in ChEMBL document CHEMBL2073922, “Cloning and characterization of the gene encoding the mouse peptide transporter PEPT2” (Biochem Biophys Res Commun, 2000).

Common to all, as to type: functional, cell-based
Conditions in all cases: Oocyte

The target in assay [1] is T1, Solute carrier family 15 member 2 (Mus musculus) (UniProt Q9ES07).
T1 sequence (whole entry): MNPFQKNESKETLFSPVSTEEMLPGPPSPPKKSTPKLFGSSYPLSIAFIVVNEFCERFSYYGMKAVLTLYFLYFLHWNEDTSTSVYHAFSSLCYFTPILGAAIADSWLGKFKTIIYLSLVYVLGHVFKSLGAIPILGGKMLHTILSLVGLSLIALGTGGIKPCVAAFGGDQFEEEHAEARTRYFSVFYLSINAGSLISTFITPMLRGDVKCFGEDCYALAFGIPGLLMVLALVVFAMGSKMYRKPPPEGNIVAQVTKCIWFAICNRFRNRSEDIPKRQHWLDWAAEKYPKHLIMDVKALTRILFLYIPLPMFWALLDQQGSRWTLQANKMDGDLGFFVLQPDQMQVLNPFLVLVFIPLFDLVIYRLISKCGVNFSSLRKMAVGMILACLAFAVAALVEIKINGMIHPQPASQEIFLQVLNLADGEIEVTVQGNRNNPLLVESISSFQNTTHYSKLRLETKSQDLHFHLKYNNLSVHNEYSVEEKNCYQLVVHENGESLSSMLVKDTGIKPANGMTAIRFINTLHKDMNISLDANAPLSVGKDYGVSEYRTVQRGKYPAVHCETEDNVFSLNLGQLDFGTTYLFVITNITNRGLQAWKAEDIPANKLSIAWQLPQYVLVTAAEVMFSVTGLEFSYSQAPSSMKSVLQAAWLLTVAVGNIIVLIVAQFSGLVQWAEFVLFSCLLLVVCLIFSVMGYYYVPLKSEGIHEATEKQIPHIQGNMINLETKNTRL
The assay is described as follows: (§1) TP_TRANSPORTER: uptake (electrogenesis) in Xenopus laevis oocytes.

Assay [2] concerns the target Solute carrier family 15 member 2 (Mus musculus) (UniProt Q9ES07). Described as §1. This is another data set of the same source.
In assay [3] the target is T1, Solute carrier family 15 member 2 (Mus musculus). The assay is described as follows: TP_TRANSPORTER: uptake in Xenopus laevis oocytes.

For the compound `N[C@@H](CS)C(=O)NCC(=O)O`, the Activity result in assay [1] was “substrate [+]”.

On to `NC(N)=NCCC[C@H](NC(=O)[C@@H](N)Cc1ccc(O)cc1)C(=O)O`, for which, in assay [1], the Activity entry was “substrate [+]”.

With BETA-ENDORPHIN, the Activity entry in assay [2] is “substrate [+]”.

In the case of `NC(=O)CC[C@H](NC(=O)[C@@H](N)Cc1ccccc1)C(=O)O`, the Activity result in assay [3] was “substrate [+]”.

On to `NCCC(=O)N[C@@H](Cc1c[nH]cn1)C(=O)O`, for which the Activity entry in assay [1] was “substrate [+]”.
